Laboratory results reported in patent EP4722207A1, “OXOISOINDOLINYL-SUBSTITUTED TETRAHYDROPYRIMIDINEDIONE DERIVATIVE AND USE THEREOF” (Gluetacs Therapeutics (Shanghai) Co., Ltd., priority 2023, dated 2024).

Legend:
[1] = biological target: T1, WEE1 (Homo sapiens, UniProt P30291+Q96SW2); assay: Western-blot assay, substrate protein degradation in hPBMCs: WEE1; type: cell-based; settings: 24 hours of compound treatment, 50 nM and 500 nM
T1 construct: effects of the compounds of the present disclosure on the expression of target proteins in cells; endogenous in cells; host or cells: human PBMCs (hPBMCs)
T1 sequence (P30291 whole entry): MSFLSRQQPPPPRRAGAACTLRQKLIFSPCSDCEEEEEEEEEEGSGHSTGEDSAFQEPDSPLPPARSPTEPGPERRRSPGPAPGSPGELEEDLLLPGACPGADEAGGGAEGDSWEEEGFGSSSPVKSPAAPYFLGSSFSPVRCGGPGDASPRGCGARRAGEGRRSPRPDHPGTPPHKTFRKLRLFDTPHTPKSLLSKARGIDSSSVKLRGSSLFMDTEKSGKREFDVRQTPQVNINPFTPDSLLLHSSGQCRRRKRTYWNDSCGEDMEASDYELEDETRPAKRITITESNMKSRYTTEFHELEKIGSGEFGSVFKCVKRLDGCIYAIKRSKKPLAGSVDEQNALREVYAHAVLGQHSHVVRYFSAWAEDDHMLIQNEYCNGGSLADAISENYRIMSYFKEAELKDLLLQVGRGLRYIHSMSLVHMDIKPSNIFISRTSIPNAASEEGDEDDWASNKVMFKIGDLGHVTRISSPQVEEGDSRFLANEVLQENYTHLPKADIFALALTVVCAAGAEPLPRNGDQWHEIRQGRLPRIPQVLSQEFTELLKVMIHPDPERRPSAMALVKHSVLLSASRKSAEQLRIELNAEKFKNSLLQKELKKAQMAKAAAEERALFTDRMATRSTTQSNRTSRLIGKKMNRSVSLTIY
T1 sequence (Q96SW2 whole entry): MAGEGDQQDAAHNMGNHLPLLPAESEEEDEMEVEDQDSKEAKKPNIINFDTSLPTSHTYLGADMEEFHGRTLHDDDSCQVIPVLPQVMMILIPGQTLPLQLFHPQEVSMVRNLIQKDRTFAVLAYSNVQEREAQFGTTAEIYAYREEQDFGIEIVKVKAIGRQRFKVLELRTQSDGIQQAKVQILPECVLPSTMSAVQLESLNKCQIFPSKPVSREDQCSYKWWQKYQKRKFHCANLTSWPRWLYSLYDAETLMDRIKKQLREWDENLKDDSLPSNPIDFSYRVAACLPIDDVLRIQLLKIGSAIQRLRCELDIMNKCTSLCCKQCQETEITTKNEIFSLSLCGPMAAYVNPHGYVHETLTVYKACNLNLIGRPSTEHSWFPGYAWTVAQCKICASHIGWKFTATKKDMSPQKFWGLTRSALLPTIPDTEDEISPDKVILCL
T1 sequence (Q16531 whole entry partner): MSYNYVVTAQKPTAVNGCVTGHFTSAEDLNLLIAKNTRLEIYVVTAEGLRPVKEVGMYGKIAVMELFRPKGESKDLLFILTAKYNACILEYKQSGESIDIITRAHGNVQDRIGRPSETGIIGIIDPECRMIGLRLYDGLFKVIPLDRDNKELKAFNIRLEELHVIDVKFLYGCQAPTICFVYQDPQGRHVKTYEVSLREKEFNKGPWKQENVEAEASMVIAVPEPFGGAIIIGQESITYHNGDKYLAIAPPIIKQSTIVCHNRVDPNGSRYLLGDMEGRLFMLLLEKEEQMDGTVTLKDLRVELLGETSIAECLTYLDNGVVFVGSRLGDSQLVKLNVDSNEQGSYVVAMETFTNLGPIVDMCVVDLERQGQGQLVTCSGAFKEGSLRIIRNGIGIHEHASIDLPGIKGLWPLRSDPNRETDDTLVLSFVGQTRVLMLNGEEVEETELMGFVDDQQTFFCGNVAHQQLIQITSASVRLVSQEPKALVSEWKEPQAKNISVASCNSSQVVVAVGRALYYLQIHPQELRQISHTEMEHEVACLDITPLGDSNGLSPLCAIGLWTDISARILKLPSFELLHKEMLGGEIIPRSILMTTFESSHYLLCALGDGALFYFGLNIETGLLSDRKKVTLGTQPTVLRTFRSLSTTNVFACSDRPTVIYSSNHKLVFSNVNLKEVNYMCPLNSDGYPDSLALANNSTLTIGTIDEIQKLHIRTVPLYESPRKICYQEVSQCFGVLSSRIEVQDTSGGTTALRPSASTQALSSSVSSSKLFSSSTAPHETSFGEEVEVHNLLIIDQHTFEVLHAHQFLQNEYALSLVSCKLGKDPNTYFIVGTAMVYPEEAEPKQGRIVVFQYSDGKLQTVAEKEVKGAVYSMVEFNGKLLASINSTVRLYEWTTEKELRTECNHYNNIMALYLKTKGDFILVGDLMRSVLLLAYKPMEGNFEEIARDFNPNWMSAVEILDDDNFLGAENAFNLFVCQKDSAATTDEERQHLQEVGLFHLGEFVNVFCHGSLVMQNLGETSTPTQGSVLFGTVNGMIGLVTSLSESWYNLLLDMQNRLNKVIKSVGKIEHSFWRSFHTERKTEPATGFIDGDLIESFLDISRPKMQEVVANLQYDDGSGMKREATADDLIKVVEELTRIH

[2] = biological target: T2, IKZF1 (Homo sapiens, UniProt Q13422+Q96SW2); assay: Western-blot assay, substrate protein degradation in hPBMCs: IKZF1; type: cell-based; settings: 24 hours of compound treatment, 50 nM and 500 nM
T2 construct: effects of the compounds of the present disclosure on the expression of target proteins in cells; endogenous in cells; host or cells: human PBMCs (hPBMCs)
T2 sequence (Q13422 whole entry): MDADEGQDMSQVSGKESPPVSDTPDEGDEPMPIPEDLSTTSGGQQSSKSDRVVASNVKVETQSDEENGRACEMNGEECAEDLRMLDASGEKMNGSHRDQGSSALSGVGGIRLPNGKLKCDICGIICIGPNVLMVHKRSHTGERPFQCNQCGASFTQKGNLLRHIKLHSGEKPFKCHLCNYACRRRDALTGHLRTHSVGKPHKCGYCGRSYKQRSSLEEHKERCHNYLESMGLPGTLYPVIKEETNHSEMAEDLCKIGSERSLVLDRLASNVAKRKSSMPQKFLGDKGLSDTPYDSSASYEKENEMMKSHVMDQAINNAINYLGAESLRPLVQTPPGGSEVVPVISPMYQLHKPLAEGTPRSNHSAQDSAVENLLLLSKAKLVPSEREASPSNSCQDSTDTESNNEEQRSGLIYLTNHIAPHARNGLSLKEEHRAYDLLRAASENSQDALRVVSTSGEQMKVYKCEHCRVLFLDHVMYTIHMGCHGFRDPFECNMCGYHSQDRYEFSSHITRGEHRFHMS
T2 sequence (Q96SW2 whole entry): as the sequence (Q96SW2 whole entry) above
T2 sequence (Q16531 whole entry partner): as the sequence (Q16531 whole entry partner) above

[3] = biological target: T3, IKZF2 (Homo sapiens, UniProt Q96SW2+Q9UKS7); assay: Western-blot assay, substrate protein degradation in hPBMCs: IKZF2; type: cell-based; settings: 24 hours of compound treatment, 50 nM and 500 nM
T3 construct: effects of the compounds of the present disclosure on the expression of target proteins in cells; endogenous in cells; host or cells: human PBMCs (hPBMCs)
T3 sequence (Q9UKS7 whole entry): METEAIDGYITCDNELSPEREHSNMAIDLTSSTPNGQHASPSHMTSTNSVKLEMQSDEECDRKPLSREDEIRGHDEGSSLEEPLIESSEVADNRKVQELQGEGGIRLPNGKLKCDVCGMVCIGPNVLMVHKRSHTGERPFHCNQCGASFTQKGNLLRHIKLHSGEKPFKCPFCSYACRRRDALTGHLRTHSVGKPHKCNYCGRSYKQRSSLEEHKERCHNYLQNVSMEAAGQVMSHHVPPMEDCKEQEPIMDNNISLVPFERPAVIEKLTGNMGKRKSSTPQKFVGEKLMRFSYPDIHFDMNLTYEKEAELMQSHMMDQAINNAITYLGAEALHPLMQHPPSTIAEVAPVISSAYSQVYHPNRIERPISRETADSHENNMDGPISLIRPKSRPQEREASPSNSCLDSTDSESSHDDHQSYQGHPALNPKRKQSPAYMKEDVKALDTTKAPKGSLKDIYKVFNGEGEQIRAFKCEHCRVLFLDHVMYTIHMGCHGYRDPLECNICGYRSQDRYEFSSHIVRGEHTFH
T3 sequence (Q96SW2 whole entry): as the sequence (Q96SW2 whole entry) above
T3 sequence (Q16531 whole entry partner): as the sequence (Q16531 whole entry partner) above

[4] = biological target: T4, IKZF3 (Homo sapiens, UniProt Q96SW2+Q9UKT9); assay: Western-blot assay, substrate protein degradation in hPBMCs: IKZF3; type: cell-based; settings: 24 hours of compound treatment, 50 nM and 500 nM
T4 construct: effects of the compounds of the present disclosure on the expression of target proteins in cells; endogenous in cells; host or cells: human PBMCs (hPBMCs)
T4 sequence (Q9UKT9 whole entry): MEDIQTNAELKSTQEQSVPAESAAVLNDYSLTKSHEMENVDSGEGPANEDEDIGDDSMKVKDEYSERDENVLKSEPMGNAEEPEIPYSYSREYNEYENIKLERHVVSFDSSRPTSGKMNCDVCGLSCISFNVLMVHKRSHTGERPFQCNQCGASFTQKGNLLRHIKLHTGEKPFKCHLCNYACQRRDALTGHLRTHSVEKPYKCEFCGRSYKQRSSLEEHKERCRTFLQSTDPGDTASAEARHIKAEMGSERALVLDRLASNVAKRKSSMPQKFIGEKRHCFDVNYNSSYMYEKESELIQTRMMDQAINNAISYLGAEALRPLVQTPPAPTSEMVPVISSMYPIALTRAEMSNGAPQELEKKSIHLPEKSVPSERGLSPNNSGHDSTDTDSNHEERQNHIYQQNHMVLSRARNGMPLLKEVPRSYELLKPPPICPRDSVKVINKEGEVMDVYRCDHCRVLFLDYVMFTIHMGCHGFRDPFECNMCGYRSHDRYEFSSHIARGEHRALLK
T4 sequence (Q96SW2 whole entry): as the sequence (Q96SW2 whole entry) above
T4 sequence (Q16531 whole entry partner): as the sequence (Q16531 whole entry partner) above

[5] = biological target: T5, CK1α (Homo sapiens, UniProt P48729+Q96SW2); assay: Western-blot assay, substrate protein degradation in hPBMCs: CK1α; type: cell-based; settings: 24 hours of compound treatment, 50 nM and 500 nM
T5 construct: effects of the compounds of the present disclosure on the expression of target proteins in cells; endogenous in cells; host or cells: human PBMCs (hPBMCs)

[6] = biological target: T6, GSPT1 (Homo sapiens, UniProt P15170+Q96SW2); assay: Western-blot assay, substrate protein degradation in hPBMCs: GSPT1; type: cell-based; settings: 24 hours of compound treatment, 50 nM and 500 nM
T6 construct: effects of the compounds of the present disclosure on the expression of target proteins in cells; endogenous in cells; host or cells: human PBMCs (hPBMCs)
T6 sequence (P15170 whole entry): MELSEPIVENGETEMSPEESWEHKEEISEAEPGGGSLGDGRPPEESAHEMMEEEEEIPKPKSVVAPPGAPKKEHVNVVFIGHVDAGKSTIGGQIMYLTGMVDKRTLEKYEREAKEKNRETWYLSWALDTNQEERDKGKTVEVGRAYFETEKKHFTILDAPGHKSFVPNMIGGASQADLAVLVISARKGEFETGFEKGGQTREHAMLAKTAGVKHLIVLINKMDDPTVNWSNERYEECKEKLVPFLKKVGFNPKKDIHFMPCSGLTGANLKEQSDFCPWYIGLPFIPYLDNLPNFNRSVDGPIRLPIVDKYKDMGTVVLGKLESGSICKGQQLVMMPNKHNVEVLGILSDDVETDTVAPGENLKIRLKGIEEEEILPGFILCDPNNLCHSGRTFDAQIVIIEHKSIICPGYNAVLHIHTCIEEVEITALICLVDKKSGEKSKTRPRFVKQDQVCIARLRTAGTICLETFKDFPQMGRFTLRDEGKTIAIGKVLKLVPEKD
T6 sequence (Q96SW2 whole entry): as the sequence (Q96SW2 whole entry) above
T6 sequence (Q16531 whole entry partner): as the sequence (Q16531 whole entry partner) above

[7] = tested on: MM.1S; assay: Cell viability assay (CellTiter-Meiluncell Luminescent), tumor cell proliferation, MM.1S; settings: Homo sapiens, MM1.S, 96 h; for inhibition at 0.01 µM: read-out: Inhibition Rate at 10 nM (%); for inhibition at 0.5 µM: read-out: Inhibition Rate at 500 nM (%)
[8] = tested on: H2228; assay: Cell viability assay (CellTiter-Meiluncell Luminescent), tumor cell proliferation, H2228; settings: Homo sapiens, NCI-H2228, 96 h; for inhibition at 0.01 µM: read-out: Inhibition Rate at 10 nM (%); for inhibition at 0.5 µM: read-out: Inhibition Rate at 500 nM (%)
[9] = tested on: MV-4-11; assay: Cell viability assay (CellTiter-Meiluncell Luminescent), tumor cell proliferation, MV-4-11; settings: Homo sapiens, MV4-11, 96 h; for inhibition at 0.01 µM: read-out: Inhibition Rate at 10 nM (%); for inhibition at 0.5 µM: read-out: Inhibition Rate at 500 nM (%)
[10] = tested on: MDA-MB-231; assay: Cell viability assay (CellTiter-Meiluncell Luminescent), tumor cell proliferation, MDA-MB-231; settings: Homo sapiens, MDA-MB-231, 96 h; for inhibition at 0.01 µM: read-out: Inhibition Rate at 10 nM (%); for inhibition at 0.5 µM: read-out: Inhibition Rate at 500 nM (%)
[11] = tested on: H292; assay: Cell viability assay (CellTiter-Meiluncell Luminescent), tumor cell proliferation, H292; settings: Homo sapiens, NCI-H292, 96 h; for inhibition at 0.01 µM: read-out: Inhibition Rate at 10 nM (%); for inhibition at 0.5 µM: read-out: Inhibition Rate at 500 nM (%)

SMILES | substrate protein remaining % WEE1 [1] | substrate protein remaining % IKZF1 [2] | substrate protein remaining % IKZF2 [3] | substrate protein remaining % IKZF3 [4] | substrate protein remaining % CK1α [5] | substrate protein remaining % GSPT1 [6] | inhibition at 0.01 µM [7] [%] | inhibition at 0.5 µM [7] [%] | inhibition at 0.01 µM [8] [%] | inhibition at 0.5 µM [8] [%] | inhibition at 0.01 µM [9] [%] | inhibition at 0.5 µM [9] [%] | inhibition at 0.01 µM [10] [%] | inhibition at 0.5 µM [10] [%] | inhibition at 0.01 µM [11] [%] | inhibition at 0.5 µM [11] [%]
O=C1CCN(N2Cc3cc(CN4CC=C(c5cccc(Cl)c5Cl)CC4)ccc3C2=O)C(=O)N1 [GT-08054, 1-(5-((4-(2,3-dichlorophenyl)-3,6-dihydropyridin-1(2H)-yl)methyl)-1-oxoisoindolin-2-yl)dihydropyrimidine-2,4(1H,3H)-dione] | A (0% ≤ substrate protein remaining % ≤ 80%) | A (0% ≤ substrate protein remaining % ≤ 80%) | A (0% ≤ substrate protein remaining % ≤ 80%) | A (0% ≤ substrate protein remaining % ≤ 80%) | A (0% ≤ substrate protein remaining % ≤ 80%) | A (0% ≤ substrate protein remaining % ≤ 80%) | 5 to 10 | 80 to 100 | 20 to 25 | 40 to 60 | 18 to 25 | 80 to 100 | 25 to 40 | 80 to 100 |  | 
O=C1CCN(N2Cc3cc(CN4CC=C(c5cccc(F)c5Cl)CC4)ccc3C2=O)C(=O)N1 [GT-08055, 1-(5-((4-(2-chloro-3-fluorophenyl)-3,6-dihydropyridin-1(2H)-yl)methyl)-1-oxoisoindolin-2-yl)dihydropyrimidine-2,4(1H,3H)-dione] | A (0% ≤ substrate protein remaining % ≤ 80%) | A (0% ≤ substrate protein remaining % ≤ 80%) | A (0% ≤ substrate protein remaining % ≤ 80%) | A (0% ≤ substrate protein remaining % ≤ 80%) | A (0% ≤ substrate protein remaining % ≤ 80%) | A (0% ≤ substrate protein remaining % ≤ 80%) | -10 to -5 | 80 to 100 | 10 to 15 | 20 to 25 | 25 to 30 | 80 to 100 | 18 to 25 | 60 to 80 |  | 
Cc1sc2ncnc(N3CCCN(Cc4ccc5c(c4)CN(N4CCC(=O)NC4=O)C5=O)CC3)c2c1C [GT-08062, 1-(5-((4-(5,6-dimethylthieno[2,3-d]pyrimidin-4-yl)-1,4-diazepan-1-yl)methyl)-1-oxoisoindolin-2-yl)dihydropyrimidine-2,4(1H,3H)-dione] | B (80%< substrate protein remaining %≤ 100%) | B (80%< substrate protein remaining %≤ 100%) | A (0% ≤ substrate protein remaining % ≤ 80%) | A (0% ≤ substrate protein remaining % ≤ 80%) | B (80%< substrate protein remaining %≤ 100%) | B (80%< substrate protein remaining %≤ 100%) | 30 to 42 | 30 to 42 | 25 to 30 | 30 to 40 |  |  | 15 to 18 | 25 to 40 | 20 to 40 | 40 to 60
O=C1CCN(N2Cc3cc(CN4CCC(c5ncnc6sc(-c7ccccc7)cc56)CC4)ccc3C2=O)C(=O)N1 [GT-08085, 1-(1-oxo-5-((4-(6-phenylthieno[2,3-d]pyrimidin-4-yl)piperidin-1-yl)methyl)isoindolin-2-yl)dihydropyrimidine-2,4(1H,3H)-dione] | B (80%< substrate protein remaining %≤ 100%) | B (80%< substrate protein remaining %≤ 100%) | B (80%< substrate protein remaining %≤ 100%) | B (80%< substrate protein remaining %≤ 100%) | A (0% ≤ substrate protein remaining % ≤ 80%) | A (0% ≤ substrate protein remaining % ≤ 80%) | 30 to 42 | 42 to 60 | 25 to 30 | 30 to 40 | 30 to 40 | 25 to 30 | 25 to 40 | 40 to 60 | 20 to 40 | 40 to 60
Cc1nc(C2CCN(Cc3ccc4c(c3)CN(N3CCC(=O)NC3=O)C4=O)CC2)c2ccsc2n1 [GT-08088, 1-(5-((4-(2-methylthieno[2,3-d]pyrimidin-4-yl)piperidin-1-yl)methyl)-1-oxoisoindolin-2-yl)dihydropyrimidine-2,4(1H,3H)-dione] | A (0% ≤ substrate protein remaining % ≤ 80%) | B (80%< substrate protein remaining %≤ 100%) | B (80%< substrate protein remaining %≤ 100%) | B (80%< substrate protein remaining %≤ 100%) | A (0% ≤ substrate protein remaining % ≤ 80%) | A (0% ≤ substrate protein remaining % ≤ 80%) | 42 to 60 | 42 to 60 | 25 to 30 | 25 to 30 | 40 to 60 | 30 to 40 | 18 to 25 | 25 to 40 | 20 to 40 | 20 to 40
O=C1CCN(N2C(=O)c3ccc(CN4CCN(c5ncnc6sc7c(c56)CCCC7)CC4)cc3C2=O)C(=O)N1 [GT-08102, 2-(2,4-dioxotetrahydropyrimidin-1(2H)-yl)-5-((4-(5,6,7,8-tetrahydrobenzo[4,5]thieno[2,3-d]pyrimidin-4-yl)piperazin-1-yl)methyl)isoindoline-1,3-dione] |  |  |  |  |  |  | 30 to 42 | 30 to 42 | 20 to 25 | 20 to 25 | 40 to 60 | 40 to 60 |  |  |  | 
O=C1CCN(N2Cc3cc(CN4CCC(c5ncnc6sc7c(c56)CCC7)CC4)ccc3C2=O)C(=O)N1 [GT-08113, 1-(5-((4-(6,7-dihydro-5H-cyclopenta[4,5]thieno[2,3-d]pyrimidin-4-yl)piperidin-1-yl)methyl)-1-oxoisoindolin-2-yl)dihydropyrimidine-2,4(1H,3H)-dione] | B (80%< substrate protein remaining %≤ 100%) | B (80%< substrate protein remaining %≤ 100%) | B (80%< substrate protein remaining %≤ 100%) | B (80%< substrate protein remaining %≤ 100%) | A (0% ≤ substrate protein remaining % ≤ 80%) | A (0% ≤ substrate protein remaining % ≤ 80%) |  |  | 20 to 25 | 25 to 30 | 30 to 40 | 10 to 18 | 25 to 40 | 40 to 60 | 20 to 40 | 20 to 40
CC(C)c1cc2c(C3=CCN(Cc4ccc5c(c4)CN(N4CCC(=O)NC4=O)C5=O)CC3)ncnc2s1 [GT-08158, 1-(5-((4-(6-isopropylthieno[2,3-d]pyrimidin-4-yl)-3,6-dihydropyridin-1(2H)-yl)methyl)-1-oxoisoindolin-2-yl)dihydropyrimidine-2,4(1H,3H)-dione] |  |  |  |  |  |  | 5 to 10 | 80 to 100 | 25 to 30 | 60 to 80 | 30 to 40 | 100 to 110 | 18 to 25 | 80 to 100 | 20 to 40 | 40 to 60
Cc1sc2ncnc(C3=CCN(Cc4ccc5c(c4)CN(N4CCC(=O)NC4=O)C5=O)CC3)c2c1C [GT-08159, 1-(5-((4-(5,6-dimethylthieno[2,3-d]pyrimidin-4-yl)-3,6-dihydropyridin-1(2H)-yl)methyl)-1-oxoisoindolin-2-yl)dihydropyrimidine-2,4(1H,3H)-dione] |  |  |  |  |  |  | 0 to 5 | 60 to 80 | 10 to 15 | 25 to 30 | 30 to 40 | 80 to 100 | 10 to 15 | 18 to 25 | 15 to 20 | 20 to 40
Nc1cccc2c1CN(C1CCC(=O)NC1=O)C2=O (stereo not shown) [lenalidomide, reference compound] |  |  |  |  |  |  | 10 to 20 | 30 to 42 | 20 to 25 | 15 to 20 | 10 to 18 | 10 to 18 | 15 to 18 | 10 to 15 | 0 to 1 | 5 to 10
